Data on 9 compounds can be found in PubChem BioAssay AID1259407 (Chemical Carcinogenesis Research Information System (CCRIS), 2018).

This series relates to CCRIS mutagenicity, Ames/micronucleus/aberration tests. As to the kind of experiment: CCRIS mutagenicity studies.
Setting [1] is: Test System: AMES SALMONELLA TYPHIMURIUM, Strain/Indicator: TA100, Metabolic Activation: NONE, Method: PREINCUBATION
Setting [2] is: Test System: AMES SALMONELLA TYPHIMURIUM, Strain/Indicator: TA1535, Metabolic Activation: NONE, Method: PREINCUBATION
Setting [3] is: Test System: AMES SALMONELLA TYPHIMURIUM, Strain/Indicator: TA100, Metabolic Activation: NONE, Method: STANDARD PLATE.
The mark [4] stands for this setting: Test System: AMES SALMONELLA TYPHIMURIUM, Strain/Indicator: TA100, Metabolic Activation: RAT, LIVER, S-9, AROCLOR 1254, Method: STANDARD PLATE.
Where [5] appears, read: Test System: AMES SALMONELLA TYPHIMURIUM, Strain/Indicator: TA102, Metabolic Activation: NONE, Method: PREINCUBATION
The mark [6] stands for this setting: Test System: AMES SALMONELLA TYPHIMURIUM, Strain/Indicator: TA98, Metabolic Activation: NONE, Method: STANDARD PLATE.

The structures appear in SMILES notation. Active and inactive are the calls of the source. No rule for the calls is given here.

On to `c1ccc2c(c1)Oc1ccccc1S2`, for which the mutagenic call reads like this: (Test System: AMES SALMONELLA TYPHIMURIUM, Strain/Indicator: TA97, Metabolic Activation: HAMSTER, LIVER, S-9, AROCLOR 1254 (10 OR 30%), Method: PREINCUBATION) “inactive; negative”; (Test System: AMES SALMONELLA TYPHIMURIUM, Strain/Indicator: TA97, Metabolic Activation: NONE, Method: PREINCUBATION) “inactive; negative”; (Test System: AMES SALMONELLA TYPHIMURIUM, Strain/Indicator: TA97, Metabolic Activation: RAT, LIVER, S-9, AROCLOR 1254 (10 OR 30%), Method: PREINCUBATION) “inactive; negative”; (Test System: AMES SALMONELLA TYPHIMURIUM, Strain/Indicator: TA98, Metabolic Activation: HAMSTER, LIVER, S-9, AROCLOR 1254 (10 OR 30%), Method: PREINCUBATION) “inactive; negative”; (Test System: AMES SALMONELLA TYPHIMURIUM, Strain/Indicator: TA98, Metabolic Activation: NONE, Method: PREINCUBATION) “inactive; negative”; (Test System: AMES SALMONELLA TYPHIMURIUM, Strain/Indicator: TA98, Metabolic Activation: RAT, LIVER, S-9, AROCLOR 1254 (10 OR 30%), Method: PREINCUBATION) “inactive; negative”. Moreover, the mutagenic call is “inactive; negative” (Test System: AMES SALMONELLA TYPHIMURIUM, Strain/Indicator: TA100, Metabolic Activation: HAMSTER, LIVER, S-9, AROCLOR 1254 (10 OR 30%), Method: PREINCUBATION); “inactive; negative” under setting [1]; “inactive; negative” (Test System: AMES SALMONELLA TYPHIMURIUM, Strain/Indicator: TA100, Metabolic Activation: RAT, LIVER, S-9, AROCLOR 1254 (10 OR 30%), Method: PREINCUBATION); “inactive; negative” (Test System: AMES SALMONELLA TYPHIMURIUM, Strain/Indicator: TA1535, Metabolic Activation: HAMSTER, LIVER, S-9, AROCLOR 1254 (10 OR 30%), Method: PREINCUBATION); “inactive; negative” under setting [2]; “inactive; negative” (Test System: AMES SALMONELLA TYPHIMURIUM, Strain/Indicator: TA1535, Metabolic Activation: RAT, LIVER, S-9, AROCLOR 1254 (10 OR 30%), Method: PREINCUBATION).

In the case of `OCC(O)C1CO1` (stereo not drawn), the mutagenic call (End Point: IN VIVO MICRONUCLEUS, Test System: SPERMATID, Species: RAT, Strain/Sex: SPRAGUE-DAWLEY/MALE, Route: IP INJECTION) is “active; positive”; the mutagenic call under setting [3] is “active; positive”; the mutagenic call under setting [4] was “active; positive”.

Take `CC(C)(C)[N+](=O)[O-]`: the mutagenic call is “inactive; negative” under setting [1]; “inactive; negative” (Test System: AMES SALMONELLA TYPHIMURIUM, Strain/Indicator: TA100, Metabolic Activation: RAT, LIVER, S-9, AROCLOR, Method: PREINCUBATION); “inactive; negative” under setting [5]; “inactive; negative” (Test System: AMES SALMONELLA TYPHIMURIUM, Strain/Indicator: TA102, Metabolic Activation: RAT, LIVER, S-9, AROCLOR, Method: PREINCUBATION).

Turning to `c1ccc2c(c1)C1OOC2c2ccccc21`, the mutagenic call is, setting by setting: under setting [6], “inactive; negative”; under setting [3], “inactive; negative”; under setting [4], “inactive; negative”.

With `[Cl][Ni][Cl]`, the mutagenic call was “active; positive” (End Point: IN VITRO MICRONUCLEUS, Test System: CHL/IU CELLS, Metabolic Activation: NONE); “inactive; negative” under setting [5]; “inactive; negative” under setting [2]; “inactive; negative” (Test System: AMES SALMONELLA TYPHIMURIUM, Strain/Indicator: TA1538, Metabolic Activation: NONE, Method: PREINCUBATION); “inactive; negative” (Test System: AMES SALMONELLA TYPHIMURIUM, Strain/Indicator: TA1975, Metabolic Activation: NONE, Method: PREINCUBATION); “inactive; negative” (Test System: AMES SALMONELLA TYPHIMURIUM, Strain/Indicator: TA1978, Metabolic Activation: NONE, Method: PREINCUBATION). The mutagenic call is, setting by setting: (Test System: CHINESE HAMSTER G10, Strain/Indicator: G10 (GPT)/6-THIOGUANINE, Metabolic Activation: NONE) “active; positive”; (Test System: CHINESE HAMSTER G10, Strain/Indicator: G10/6-THIOGUANINE, Metabolic Activation: NONE) “active; positive”; (Test System: CHINESE HAMSTER G12, Strain/Indicator: G12 (GPT)/6-THIOGUANINE, Metabolic Activation: NONE) “active; positive”; (Test System: CHINESE HAMSTER G12, Strain/Indicator: G12/6-THIOGUANINE, Metabolic Activation: NONE) “active; positive”; (Test System: CHINESE HAMSTER V-79, Strain/Indicator: SP5 V-79 (HPRT)/6-THIOGUANINE, Metabolic Activation: NONE, Method: STANDARD PLATE) “inactive; negative”; (Test System: CHINESE HAMSTER V-79, Strain/Indicator: SPD8 V-79 (HPRT)/6-THIOGUANINE, Metabolic Activation: NONE, Method: STANDARD PLATE) “active; positive”. The mutagenic call is “active; positive” (Test System: E. COLI, Strain/Indicator: WP2 UVRA, Metabolic Activation: NONE, Method: SPOT TEST); “active; positive” (Test System: E. COLI, Strain/Indicator: WP2 UVRA, Metabolic Activation: NONE, Method: STANDARD PLATE); “active; positive” (Test System: UDS HUMAN AMNION FL CELL LINE, Strain/Indicator: THY INCORP, Metabolic Activation: NONE, Method: LIQUID SCINTILLATION COUNTING).

Turning to `Cl.Cl.[Cr].c1ccc(-c2ccccn2)nc1.c1ccc(-c2ccccn2)nc1`, under setting [3], the mutagenic call is “active; positive”.

In the case of `COC(=O)[C@@H]1CS[C@@H]2C(Cl)=C(Cl)C(=O)N21`, the mutagenic call under setting [3] is “active; positive”.

Regarding `c1ccc2c(c1)cc1ccc3cccc4c5ccccc5c2c1c34`, the mutagenic call (End Point: In vitro micronucleus, Test System: V79MZ Chinese hamster fibroblasts, Metabolic Activation: None) was “inactive; negative”; the mutagenic call (End Point: In vitro micronucleus, Test System: V79MZ-h1A1 Chinese hamster fibroblasts (expressing human CYP1A1), Metabolic Activation: None) was “active; positive”; the mutagenic call (End Point: In vitro micronucleus, Test System: V79MZ-h1B1 Chinese hamster fibroblasts (expressing human CYP1B1), Metabolic Activation: None) was “active; positive”; the mutagenic call (Test System: AMES SALMONELLA TYPHIMURIUM, Strain/Indicator: TA98, Metabolic Activation: RAT, LIVER, S-9, AROCLOR 1254, Method: PREINCUBATION) was “active; positive”; the mutagenic call (Test System: AMES SALMONELLA TYPHIMURIUM, Strain/Indicator: TA100, Metabolic Activation: RAT, LIVER, S-9, AROCLOR 1254, Method: PREINCUBATION) was “active; positive”; the mutagenic call (Test System: CHINESE HAMSTER V-79, Strain/Indicator: V-79 (HPRT)/6-THIOGUANINE, Metabolic Activation: HUMAN MAMMARY CARCINOMA MCF-7 CELLS) was “active; positive”.

With `COc1cc(C[C@@H]2NCCc3cc(O)c(O)cc32)cc(OC)c1OC`, the mutagenic call by setting is: under setting [6], “inactive; negative”; (Test System: AMES SALMONELLA TYPHIMURIUM, Strain/Indicator: TA98, Metabolic Activation: RAT, LIVER, S-9, AROCLOR 1254, Method: STANDARD PLATE) “inactive; negative”; under setting [3], “inactive; negative”; under setting [4], “inactive; negative”; (Test System: AMES SALMONELLA TYPHIMURIUM, Strain/Indicator: TA1535, Metabolic Activation: NONE, Method: STANDARD PLATE) “inactive; negative”; (Test System: AMES SALMONELLA TYPHIMURIUM, Strain/Indicator: TA1535, Metabolic Activation: RAT, LIVER, S-9, AROCLOR 1254, Method: STANDARD PLATE) “inactive; negative”. Besides, the mutagenic call is “inactive; negative” (Test System: AMES SALMONELLA TYPHIMURIUM, Strain/Indicator: TA1537, Metabolic Activation: NONE, Method: STANDARD PLATE) and “inactive; negative” (Test System: AMES SALMONELLA TYPHIMURIUM, Strain/Indicator: TA1537, Metabolic Activation: RAT, LIVER, S-9, AROCLOR 1254, Method: STANDARD PLATE).
